Experimental data as given in article PMC5218480 (PLoS ONE, 2017).

Test system: MV-4-11 cells
Test: Gene expression microarray analysis (Affymetrix PrimeView) and GSEA
Format: cell-based, human
Design: RFU PODN (11730768_x_at) / Fold change /veh PODN (11730768_x_at) / RFU LINC00158 (11744669_a_at) / Fold change /veh LINC00158 (11744669_a_at) / RFU DUSP10 (11751237_a_at) / Fold change /veh DUSP10 (11751237_a_at) / RFU ID3 (11757404_x_at) / Fold change /veh ID3 (11757404_x_at) / RFU PLEKHG5 (11737974_s_at) / Fold change /veh PLEKHG5 (11737974_s_at) / RFU LRRC4B (11730491_at) / Fold change /veh LRRC4B (11730491_at) / RFU GIMAP4 (11747438_a_at) / Fold change /veh GIMAP4 (11747438_a_at) / RFU KRT8 (11758183_x_at) / Fold change /veh KRT8 (11758183_x_at) / RFU CNN1 (11734310_a_at) / Fold change /veh CNN1 (11734310_a_at) / RFU VPS37D (11726825_at) / Fold change /veh VPS37D (11726825_at) / RFU C10orf10 (11716522_x_at) / Fold change /veh C10orf10 (11716522_x_at) / RFU KIR2DL2 /// KIR2DL4 /// KIR2DL5A /// KIR2DL5B /// KIR2DS1 /// KIR2DS2 /// KIR2DS3 /// KIR2DS4 /// KIR3DL3 /// KIR3DL3 /// KIR3DS1 (11738374_at) / Fold change /veh KIR2DL2 /// KIR2DL4 /// KIR2DL5A /// KIR2DL5B /// KIR2DS1 /// KIR2DS2 /// KIR2DS3 /// KIR2DS4 /// KIR3DL3 /// KIR3DL3 /// KIR3DS1 (11738374_at) / RFU C1QL1 (11718748_at) / Fold change /veh C1QL1 (11718748_at) / RFU TMPRSS4 (11747572_a_at) / Fold change /veh TMPRSS4 (11747572_a_at) / RFU HAMP (11756126_x_at) / Fold change /veh HAMP (11756126_x_at) / RFU RNFT2 (11725882_a_at) / Fold change /veh RNFT2 (11725882_a_at) / RFU NR4A2 (11747474_a_at) / Fold change /veh NR4A2 (11747474_a_at) / RFU ABCC12 (11746883_a_at) / Fold change /veh ABCC12 (11746883_a_at) / RFU TMEM136 (11760407_x_at) / Fold change /veh TMEM136 (11760407_x_at) / RFU CLDN22 /// WWC2 (11732394_at) / Fold change /veh CLDN22 /// WWC2 (11732394_at) / RFU HLA-DPB1 (11760878_x_at) / Fold change /veh HLA-DPB1 (11760878_x_at) / RFU SPINT1 (11716480_a_at) / Fold change /veh SPINT1 (11716480_a_at) / RFU GAP43 (11754022_s_at) / Fold change /veh GAP43 (11754022_s_at) / RFU A4GNT (11735810_at) / Fold change /veh A4GNT (11735810_at) / RFU PRB3 (11715151_x_at) / Fold change /veh PRB3 (11715151_x_at) / RFU TUBB4B (11761932_at) / Fold change /veh TUBB4B (11761932_at) / RFU CAPN14 (11732068_a_at) / Fold change /veh CAPN14 (11732068_a_at) / RFU TMCC2 (11721928_a_at) / Fold change /veh TMCC2 (11721928_a_at) / RFU IRGQ (11745062_a_at) / Fold change /veh IRGQ (11745062_a_at) / RFU FAM174B (11720279_a_at) / Fold change /veh FAM174B (11720279_a_at) / RFU TMPRSS4 (11748680_a_at) / Fold change /veh TMPRSS4 (11748680_a_at) / RFU FAM212B (11763350_a_at) / Fold change /veh FAM212B (11763350_a_at) / RFU PLEKHG5 (11743358_a_at) / Fold change /veh PLEKHG5 (11743358_a_at) / RFU ZSCAN30 (11745921_a_at) / Fold change /veh ZSCAN30 (11745921_a_at) / RFU CMKLR1 (11741424_a_at) / Fold change /veh CMKLR1 (11741424_a_at) / RFU LOC101060620 /// MAPK8IP1 (11723275_at) / Fold change /veh LOC101060620 /// MAPK8IP1 (11723275_at) / RFU SPTSSB (11747773_x_at) / Fold change /veh SPTSSB (11747773_x_at) / RFU PRSS12 (11739890_at) / Fold change /veh PRSS12 (11739890_at) / RFU BIN1 (11741810_x_at) / Fold change /veh BIN1 (11741810_x_at) / RFU WNT11 (11732464_a_at) / Fold change /veh WNT11 (11732464_a_at) / RFU C10orf10 (11716521_a_at) / Fold change /veh C10orf10 (11716521_a_at) / RFU C5orf56 (11738089_at) / Fold change /veh C5orf56 (11738089_at) / RFU CYB561 (11721691_x_at) / Fold change /veh CYB561 (11721691_x_at) / RFU ANKRD19P (11752326_a_at) / Fold change /veh ANKRD19P (11752326_a_at) / RFU OR2T12 /// OR2T33 /// OR2T8 (11738714_s_at) / Fold change /veh OR2T12 /// OR2T33 /// OR2T8 (11738714_s_at) / RFU VCAN (11748164_a_at) / Fold change /veh VCAN (11748164_a_at) / RFU JSRP1 (11732532_at) / Fold change /veh JSRP1 (11732532_at) / RFU KRTAP10-11 (11738290_x_at) / Fold change /veh KRTAP10-11 (11738290_x_at) / RFU MYO3A (11730013_a_at) / Fold change /veh MYO3A (11730013_a_at) / RFU EBF3 (11725865_a_at) / Fold change /veh EBF3 (11725865_a_at) / RFU CAMK2N1 (11719241_x_at) / Fold change /veh CAMK2N1 (11719241_x_at) / RFU C5orf56 (11738088_a_at) / Fold change /veh C5orf56 (11738088_a_at) / RFU OLFML3 (11715873_a_at) / Fold change /veh OLFML3 (11715873_a_at) / RFU LOC100653217 /// NTM (11731650_a_at) / Fold change /veh LOC100653217 /// NTM (11731650_a_at) / RFU MAPK11 (11762145_a_at) / Fold change /veh MAPK11 (11762145_a_at) / RFU FIZ1 (11724087_x_at) / Fold change /veh FIZ1 (11724087_x_at) / RFU OASL (11726364_x_at) / Fold change /veh OASL (11726364_x_at) / RFU SOX15 (11748057_x_at) / Fold change /veh SOX15 (11748057_x_at) / RFU CD79A (11719716_a_at) / Fold change /veh CD79A (11719716_a_at) / RFU HIST1H1D (11736915_at) / Fold change /veh HIST1H1D (11736915_at) / RFU CASKIN2 (11723855_a_at) / Fold change /veh CASKIN2 (11723855_a_at) / RFU LOC730098 (11760151_x_at) / Fold change /veh LOC730098 (11760151_x_at) / RFU OR4N2 (11742367_at) / Fold change /veh OR4N2 (11742367_at) / RFU PRRT2 (11749266_a_at) / Fold change /veh PRRT2 (11749266_a_at) / RFU SNX32 (11753110_a_at) / Fold change /veh SNX32 (11753110_a_at) / RFU CDHR5 (11726645_a_at) / Fold change /veh CDHR5 (11726645_a_at) / RFU RCAN1 (11760418_a_at) / Fold change /veh RCAN1 (11760418_a_at) / RFU FAM167A (11723789_a_at) / Fold change /veh FAM167A (11723789_a_at) / RFU FAM26E (11764081_at) / Fold change /veh FAM26E (11764081_at) / RFU ISYNA1 (11749810_s_at) / Fold change /veh ISYNA1 (11749810_s_at) / RFU ACY1 (11761880_at) / Fold change /veh ACY1 (11761880_at) / RFU 11764098_at / Fold change /veh 11764098_at / RFU SAMD14 (11745864_x_at) / Fold change /veh SAMD14 (11745864_x_at) / RFU NPB (11741838_a_at) / Fold change /veh NPB (11741838_a_at) / RFU TMPRSS6 (11731388_a_at) / Fold change /veh TMPRSS6 (11731388_a_at) / RFU KRTAP10-2 (11738614_at) / Fold change /veh KRTAP10-2 (11738614_at) / RFU ARHGAP8 /// PRR5-ARHGAP8 (11727945_x_at) / Fold change /veh ARHGAP8 /// PRR5-ARHGAP8 (11727945_x_at) / RFU KRTAP5-7 /// NADSYN1 (11734609_at) / Fold change /veh KRTAP5-7 /// NADSYN1 (11734609_at) / RFU RASL12 (11751679_a_at) / Fold change /veh RASL12 (11751679_a_at) / RFU CDKN2B (11736163_a_at) / Fold change /veh CDKN2B (11736163_a_at) / RFU PRF1 (11729649_at) / Fold change /veh PRF1 (11729649_at) / RFU, ZNF638 /// ZNF638-IT1 / Fold change vs veh, ZNF638 /// ZNF638-IT1 / RFU, PANK3 / Fold change vs veh, PANK3 / RFU, SH3YL1 / Fold change vs veh, SH3YL1 / RFU, ZEB2 / Fold change vs veh, ZEB2 / RFU, NRIP1 / Fold change vs veh, NRIP1 / RFU, PTTG1IP / Fold change vs veh, PTTG1IP / RFU, CAPN2 / Fold change vs veh, CAPN2 / RFU, MED14 / Fold change vs veh, MED14 / RFU, SNORA58 / Fold change vs veh, SNORA58 / RFU, C1orf63 / Fold change vs veh, C1orf63 / RFU, LRRFIP1 / Fold change vs veh, LRRFIP1 / RFU, NDUFAF7 / Fold change vs veh, NDUFAF7 / RFU, SLC12A2 / Fold change vs veh, SLC12A2 / RFU, IBTK / Fold change vs veh, IBTK / RFU, ESF1 / Fold change vs veh, ESF1 / Fold change vs veh, TMEM50B / RFU, TAOK1 / Fold change vs veh, TAOK1 / RFU, ACBD3 / Fold change vs veh, ACBD3 / RFU, TMA16 / Fold change vs veh, TMA16 / RFU, RWDD3 / Fold change vs veh, RWDD3 / RFU, BCAT1 / Fold change vs veh, BCAT1 / RFU, EDEM3 / Fold change vs veh, EDEM3 / RFU, TMEM33 / Fold change vs veh, TMEM33 / RFU, WDR75 / Fold change vs veh, WDR75 / RFU, AHCTF1 / Fold change vs veh, AHCTF1 / RFU, TFRC / Fold change vs veh, TFRC / RFU, ZDHHC17 / Fold change vs veh, ZDHHC17 / RFU, NOM1 / Fold change vs veh, NOM1 / RFU, ARL8B / Fold change vs veh, ARL8B / RFU, ZBTB11 / Fold change vs veh, ZBTB11 / RFU, TAMM41 / Fold change vs veh, TAMM41 / RFU, KIAA1704 /// LOC100996395 / Fold change vs veh, KIAA1704 /// LOC100996395 / RFU, ING1 / Fold change vs veh, ING1 / RFU, TRMT61B / Fold change vs veh, TRMT61B / RFU, FUBP3 / Fold change vs veh, FUBP3 / RFU, TP53 / Fold change vs veh, TP53 / RFU, TNKS2 / Fold change vs veh, TNKS2 / RFU, ZFP14 / Fold change vs veh, ZFP14 / RFU, ACTR2 / Fold change vs veh, ACTR2 / RFU, PPP3R1 / Fold change vs veh, PPP3R1 / RFU, PIK3R1 / Fold change vs veh, PIK3R1 / RFU, HNRNPA1 / Fold change vs veh, HNRNPA1 / RFU, RNF170 / Fold change vs veh, RNF170 / RFU, ZNF28 / Fold change vs veh, ZNF28 / RFU, RNGTT / Fold change vs veh, RNGTT / RFU, OGT / Fold change vs veh, OGT / RFU, BRD1 / Fold change vs veh, BRD1 / RFU, MARS / Fold change vs veh, MARS / RFU, ZNF655 / Fold change vs veh, ZNF655 / RFU, FAHD1 / Fold change vs veh, FAHD1 / RFU, BDP1 / Fold change vs veh, BDP1 / RFU, LRRCC1 / Fold change vs veh, LRRCC1 / RFU, ARID1A / Fold change vs veh, ARID1A / RFU, ZNF146 / Fold change vs veh, ZNF146 / RFU, ZNF330 / Fold change vs veh, ZNF330 / RFU, GPN3 / Fold change vs veh, GPN3 / RFU, C9orf123 / Fold change vs veh, C9orf123 / RFU, N4BP2L2 / Fold change vs veh, N4BP2L2 / RFU, ARFIP1 / Fold change vs veh, ARFIP1 / RFU, FAM179B / Fold change vs veh, FAM179B / RFU, BCL10 / Fold change vs veh, BCL10 / RFU, UHRF1BP1L / Fold change vs veh, UHRF1BP1L / RFU, BET1 / Fold change vs veh, BET1 / RFU, CNOT2 / Fold change vs veh, CNOT2 / RFU, ZNF268 / Fold change vs veh, ZNF268 / Fold change vs veh, ZNF507 / RFU, DGCR2 / Fold change vs veh, DGCR2 / RFU, WDSUB1 / Fold change vs veh, WDSUB1 / Fold change vs veh, HSP90B1 /// MIR3652 / RFU, ADSS / Fold change vs veh, ADSS / RFU, GK / Fold change vs veh, GK / RFU, ZNF148 / Fold change vs veh, ZNF148 / RFU, TAF9 / Fold change vs veh, TAF9 / RFU, SLC1A5 / Fold change vs veh, SLC1A5 / RFU, SLMO2 / Fold change vs veh, SLMO2 / RFU, ABCC4 / Fold change vs veh, ABCC4 / RFU, LOC101060439 /// RAP1B / Fold change vs veh, LOC101060439 /// RAP1B / RFU, RFX7 / Fold change vs veh, RFX7 / RFU, GTPBP10 / Fold change vs veh, GTPBP10 / RFU, CNEP1R1 / Fold change vs veh, CNEP1R1 / RFU, BIVM-ERCC5 /// ERCC5 / Fold change vs veh, BIVM-ERCC5 /// ERCC5 / RFU, ILF3 / Fold change vs veh, ILF3 / RFU 11762660_at / Fold change /veh 11762660_at / RFU VCAN (11757783_s_at) / Fold change /veh VCAN (11757783_s_at) / RFU DDX43 (11728927_at) / Fold change /veh DDX43 (11728927_at) / RFU KRT8 (11758188_x_at) / Fold change /veh KRT8 (11758188_x_at) / RFU NKD1 (11759106_at) / Fold change /veh NKD1 (11759106_at) / RFU SRD5A1 (11742802_a_at) / Fold change /veh SRD5A1 (11742802_a_at) / RFU TPSAB1 /// TPSB2 (11721975_s_at) / Fold change /veh TPSAB1 /// TPSB2 (11721975_s_at) / RFU GSTM3 (11746129_a_at) / Fold change /veh GSTM3 (11746129_a_at) / RFU IL23R (11737362_x_at) / Fold change /veh IL23R (11737362_x_at) / RFU TMEM51 (11727254_a_at) / Fold change /veh TMEM51 (11727254_a_at) / RFU PIWIL2 (11732686_x_at) / Fold change /veh PIWIL2 (11732686_x_at) / RFU ORM1 (11744905_x_at) / Fold change /veh ORM1 (11744905_x_at) / RFU CCDC152 (11743942_at) / Fold change /veh CCDC152 (11743942_at) / RFU ECM1 (11717891_a_at) / Fold change /veh ECM1 (11717891_a_at) / RFU IL23R (11748794_a_at) / Fold change /veh IL23R (11748794_a_at) / RFU TNFAIP8L3 (11732012_x_at) / Fold change /veh TNFAIP8L3 (11732012_x_at) / RFU MBOAT4 (11741988_at) / Fold change /veh MBOAT4 (11741988_at) / RFU 11764193_at / Fold change /veh 11764193_at / RFU TMEM53 (11763286_at) / Fold change /veh TMEM53 (11763286_at) / RFU MAGEB2 (11727129_at) / Fold change /veh MAGEB2 (11727129_at) / RFU TMEM200A (11744735_a_at) / Fold change /veh TMEM200A (11744735_a_at) / RFU CCDC152 (11751479_a_at) / Fold change /veh CCDC152 (11751479_a_at) / RFU FAM211A (11726209_a_at) / Fold change /veh FAM211A (11726209_a_at) / RFU RGS16 (11746705_a_at) / Fold change /veh RGS16 (11746705_a_at) / RFU VCAN (11755009_s_at) / Fold change /veh VCAN (11755009_s_at) / RFU RHOB (11743442_s_at) / Fold change /veh RHOB (11743442_s_at) / RFU RGS16 (11720943_a_at) / Fold change /veh RGS16 (11720943_a_at) / RFU RGS16 (11720944_at) / Fold change /veh RGS16 (11720944_at) / RFU, VPS4B / Fold change vs veh, VPS4B / RFU, CREB1 / Fold change vs veh, CREB1 / RFU, DNAJC13 / Fold change vs veh, DNAJC13 / RFU, GNAQ / Fold change vs veh, GNAQ / RFU, CDK5R1 / Fold change vs veh, CDK5R1 / RFU, ZRANB3 / Fold change vs veh, ZRANB3 / RFU, CUL4A / Fold change vs veh, CUL4A / RFU, CCNY / Fold change vs veh, CCNY / RFU, UFL1 / Fold change vs veh, UFL1 / RFU, COG3 / Fold change vs veh, COG3 / RFU, DIAPH2 / Fold change vs veh, DIAPH2 / RFU, SKA2 / Fold change vs veh, SKA2 / RFU, AFF3 / Fold change vs veh, AFF3 / RFU, LMF1 / Fold change vs veh, LMF1 / RFU, IPO11 / Fold change vs veh, IPO11 / RFU, DFFB / Fold change vs veh, DFFB / RFU, FOXP1 / Fold change vs veh, FOXP1 / RFU, CARD8 / Fold change vs veh, CARD8 / RFU, STRN3 / Fold change vs veh, STRN3 / RFU, ADK / Fold change vs veh, ADK / RFU, RASSF2 / Fold change vs veh, RASSF2 / RFU, WIPF1 / Fold change vs veh, WIPF1 / RFU, LARP1B / Fold change vs veh, LARP1B / RFU, RASA1 / Fold change vs veh, RASA1 / RFU, RB1 / Fold change vs veh, RB1 / RFU, PPFIA1 / Fold change vs veh, PPFIA1 / RFU, MAT2A / Fold change vs veh, MAT2A / RFU, CCT5 / Fold change vs veh, CCT5 / RFU, WDR92 / Fold change vs veh, WDR92 / RFU, CUX1 / Fold change vs veh, CUX1 / RFU, TTC7A / Fold change vs veh, TTC7A / RFU, TMEM135 / Fold change vs veh, TMEM135 / RFU, DEPTOR / Fold change vs veh, DEPTOR / RFU, CPM / Fold change vs veh, CPM / RFU, DNAJB6 / Fold change vs veh, DNAJB6 / RFU, CACNA2D3 / Fold change vs veh, CACNA2D3 / RFU, DTX4 / Fold change vs veh, DTX4 / RFU, TFCP2 / Fold change vs veh, TFCP2 / RFU, GMCL1 /// GMCL1P1 / Fold change vs veh, GMCL1 /// GMCL1P1 / RFU, AEBP2 / Fold change vs veh, AEBP2 / RFU, SNHG1 /// SNORD22 /// SNORD25 /// SNORD26 /// SNORD27 /// SNORD28 /// SNORD29 /// SNORD31 / Fold change vs veh, SNHG1 /// SNORD22 /// SNORD25 /// SNORD26 /// SNORD27 /// SNORD28 /// SNORD29 /// SNORD31 / Fold change (Aza/veh), C12orf56 (ProbeSet 11735607_a_at) / Fold change (ACY-1035/veh), C12orf56 (ProbeSet 11735607_a_at) / Fold change (Aza/veh), FGFR1OP (ProbeSet 11751329_s_at) / Fold change (ACY-1035/veh), FGFR1OP (ProbeSet 11751329_s_at) / Fold change (Aza/veh), VPS36 (ProbeSet 11739960_a_at) / Fold change (ACY-1035/veh), VPS36 (ProbeSet 11739960_a_at) / RFU SYPL1 (11715823_x_at) / Fold change /veh SYPL1 (11715823_x_at) / RFU IGFBP7 (11715501_s_at) / Fold change /veh IGFBP7 (11715501_s_at) / RFU REEP3 (11722064_at) / Fold change /veh REEP3 (11722064_at) / RFU IGLL1 (11728026_x_at) / Fold change /veh IGLL1 (11728026_x_at): dose or concentration left out as unconfirmed
Conditions: ProbeSet 11716999_a_at; LIST D

## Nc1ccc(-c2cccs2)cc1NC(=O)c1ccc2c(c1)cc(C1CC1)n2CCN1CCOCC1 [ACY-1035]
  Fold change vs veh, RASA1: 0.84
